Read-outs that look alike come from different tables or passages of the source.
Columns and labels:
k opioidergic receptors = target: T1, k opioidergic receptors (Mus musculus, UniProt P33534); experiment: Radioreceptorial binding, k opioidergic receptors (3H-U 69.593, mouse brain membranes)
T1 construct: the complete brain (excluding the cerebellum) was quickly dissected and stored in ice; from tissue; host or cells: CD1 mouse brain (excluding cerebellum) membranes
Text: The affinity of the compounds synthesized towards the opioidergic receptors μ, δ, k has been evaluated in vitro by radioreceptorial binding studies by using the method reported hereinunder.
For evaluating the affinity of a compound to a particular receptor(s) it is used a preparation of a tissue wherein the particular receptor(s) is (are) present, with which the compound is contacted. The tested compound is challenged with a radioactive labelled compound whose affinity for the same receptor(s) is known. The ability of the tested compound to displace the radioactive compound from the receptor gives an index of the affinity of the compound under test for the specific receptor. The amount of radioactivity present in the receptor-compound complex allows furthermore to calculate with great accuracy the amount of compound bound to the receptor. By said method it is therefore possible to quickly establish the affinity of a new compound towards a specific receptor and thus determine its pharmacological activity. With the same experimental protocol it is possible to evaluate the affinity of the compound towards other receptors and thus establishing the specificity degree of the compound towards these further receptors.
The experimentation has been carried out according to the guide lines of the European Community for the animal experimentation (EEC n. 86/609), by using laboratory animals (CD1 Charles River Italy male mice, Calco, LC, Italy) lodged twenty per cage, under standard stabulation conditions (temperature 22±2° C., relative humidity 60%, artificial lighting with light/dark cycle of 12 hours). The food and water were ad libitum.
Receptors k: CD1 male mice weighing 20-25 g were used. The animals were sacrificed by cervical dislocation and the complete brain (excluding the cerebellum) was quickly dissected and stored in ice. The tissue was homogeneized in 40 volumes (w/v) of Tris-HCl buffer (50 Mm, pH 7.4) by an Ultra-Turrax, then centrifuged for 20 minutes at 48,000×g in a centrifuge refrigerated at 4° C. The […] was resuspended in the same buffer and incubated at 37° C. for 30 minutes in an oscillating bath. At the end of the incubation the suspension was centrifuged at 48,000×g for 15 minutes and the obtained pellets resuspended in 10 volumes of Tris-HCl buffer. The binding experiment was carried out in a 1 ml volume of the suspension at the temperature of 25° C. with a protein content in the sample of about 800-1000 μg. Incubation was carried out for 60 minutes in the presence of various concentrations of the ligand ^3H-U 69.593 (41.7 Ci/mmole). The non specific binding was determined in the presence of U69593 (10 μM). Incubation was then interrupted by performing a quick filtration by filtration apparatus Brandell®, Gaithersburg, Md., USA), by using GF/C filters (Whatman®). Receptors μ and δ: the experiments were carried out according to the method described by Unterwald (1995), by using CD1 male mice weighing 20-25 g, lodged twenty in a cage, under standard stabulation conditions (temperature 22±2° C., relative humidity 60%, artificial lighting with light/dark cycle of 12 hours). After sacrifice, the complete brain (excluding the cerebellum) was quickly dissected. The so obtained tissues were rapidly homogenized, by a Polytron® equipment in 50 volumes of Tris HCl buffer (50 mM), pH 7.4 and the homogenate centrifuged at 48,000×g for 20 minutes at 4° C. The pellets obtained after centrifugation were suspended in 50 volumes of the same buffer and the so prepared suspensions were incubated at 37° C. for 45 minutes, in an oscillating bath, for making easier the separation of the endogenous opioids from the receptors. At the end of the incubation the suspensions were centrifuged at 48,000×g, for 20 minutes at 4° C. and the resulting pellets resuspended in 40 volumes of the Tris HCl (50 mM) buffer, pH 7.4. The suspension of cerebral membranes was used for the binding tests. […]

mouse = type: in vivo; conditions: 5 mg/Kg i.p., average ± SEM of 6 animals
Method: In the Tail Flick test it is determined the time elapsed between the exposure of one part of the mouse tail (2 cm measured from the tail tip) to a small heat source and the time when the animal moves away the tail (Ruiu) S. et al. in J. Pharmacol. Exp. Ther.; 306 (1) (2003) 363-370). This time interval is automatically calculated by a specific equipment for the Tail-Flick test (Apparatus for the Tail Flick, Ugo Basile, Italy). The equipment is provided with an infrared lamp that is the heat regulatable source. For avoiding lesions to the tail tissues a maximum latency time has been fixed (cut-off=12 sec), after which the tail is moved away from the heat source.
The values of the latency time obtained in the experimentation were expressed in MPE % (maximum possible effect %), according to the formula:
[formula] wherein: Test Latency is the time in seconds elapsed before the animal moves away the tail from the heat source, Base Latency is the time in seconds elapsed before the same, untreated animal moves away the tail from the heat source.
The analgesic potency of the compound obtained in Example 6.1 was evaluated. The compound was solubilized in an aqueous solution (carrier), formed of a mixture of a physiological solution, ethanol and Cremophor® EL in the ratios by volume: 18.5:1.0:0.5. The blank or control was the carrier. The test compound was administered by intraperitoneal (i.p.) route, by using a solution volume to obtain a dose of 5 mg/kg.
The duration of the analgesic effect was evaluated by determining the MPE % values obtained at different times (20, 40, 60, 120 minutes) from administration of the compound and of the corresponding control (carrier).
Example 13 was repeated but using the compound synthesized in Ex. 6.9. The analgesic activity was evaluated at 30, 60, 120 and 240 minutes from the administration of the compound. The compound was administered at the dose of 5 mg/Kg after solubilization in an aqueous solution (carrier) formed of physiological solution, ethanol and Cremophor® EL in the same ratios as indicated in Example 13.
In order to evaluate the property of the compounds of formula (I) in the modulation of the analgesic effect of morphine, the Tail Flick test was carried out by using either only morphine or morphine in association with the compound of Ex. 6.9. The procedure described in Ex. 13 was repeated by recording the MPE % values at different times from the administration of the tested compounds: 30, 60, 120 and 240 minutes.

T1 sequence (P33534 whole entry): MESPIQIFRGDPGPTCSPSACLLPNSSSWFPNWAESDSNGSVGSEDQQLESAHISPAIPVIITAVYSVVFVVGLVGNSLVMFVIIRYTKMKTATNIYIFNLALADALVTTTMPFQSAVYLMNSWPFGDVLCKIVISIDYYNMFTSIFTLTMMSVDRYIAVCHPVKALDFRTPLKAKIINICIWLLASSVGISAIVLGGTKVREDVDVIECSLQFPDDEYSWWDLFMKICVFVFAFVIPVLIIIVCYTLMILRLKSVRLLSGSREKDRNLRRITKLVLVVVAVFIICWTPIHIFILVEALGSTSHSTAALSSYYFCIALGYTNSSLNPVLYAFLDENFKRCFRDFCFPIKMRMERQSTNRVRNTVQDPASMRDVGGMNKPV

SMILES | Ki (k opioidergic receptors; 3H-U 69.593, CD1 mouse brain membranes, 25° C., 60 minutes, read-out: Ki k) | MPE % (mouse; 30 min) | MPE % (mouse; 60 min) | MPE % (mouse; 120 min) | MPE % (mouse; 240 min) | Ki (k opioidergic receptors) | MPE % (mouse; 20 min) | MPE % (mouse; 40 min)
C=CCN1C2CCC1C1CCC2N1C(c1ccc(C(=O)N(CC)CC)cc1)c1cccc(O)c1 (stereo not shown) [Example 6.9, 4-[(10-allyl-9,10-diazatricyclo[4.2.1.1^2,5]dec-9-yl)-(3-hydroxyphenyl)methyl]-N,N-diethylbenzamide] | 4.8 ± 0.9 nM | 30.1 ± 2.7% | 32.8 ± 10.0% | 18.5 ± 2.0% | 1.2 ± 0.6% | – | – | –
C=CCN1C2CCC1C1CCC2N1C(c1ccc(C(=O)N(CC)CC)cc1)c1cccc(OC)c1 (stereo not shown) [Example 6.1, 4-[(10-allyl-9,10-diazatricyclo[4.2.1.1^2,5]dec-9-yl)-(3-methoxyphenyl)methyl]-N,N-diethylbenzamide] | – | – | 20.0 ± 3.0% | 13.2 ± 2.8% | – | 55 ± 25 nM | 15.1 ± 3.5% | 50.1 ± 12.0%

Source: US8609659B2, “Substituted 3,8-diazabicyclo[3.2.1]octane compounds” (Neuroscienze Pharmaness S.C.A.R.L., priority 2009, dated 2013)
